Laboratory results taken from US20220220123A1, “AMORPHOUS AND CRYSTALLINE FORMS OF RELUGOLIX” (DR. REDDY'S LABORATORIES LIMITED, priority 2019, published 2022).

Assay: storage stability of solid forms of relugolix
Type: physicochemical

| stability (found stable; in words) (no storage conditions or duration printed) | stability of the crystalline form on storage (2-8° C.) | stability of the crystalline form on storage (25° C. and 60% RH (relative humidity)) | stability of the crystalline form on storage (40° C. and 75% RH (relative humidity)) | Compound |
| --- | --- | --- | --- | --- |
| stable |  |  |  | CONC(=O)Nc1ccc(-c2sc3c(c2CN(C)C)c(=O)n(-c2ccc(OC)nn2)c(=O)n3Cc2c(F)cccc2F)cc1 [amorphous relugolix] |
|  | stable for at least three months | stable for at least three months | stable for at least three months | CONC(=O)Nc1ccc(-c2sc3c(c2CN(C)C)c(=O)n(-c2ccc(OC)nn2)c(=O)n3Cc2c(F)cccc2F)cc1 [crystalline form R1] |
